We go through 42 molecules from patent publication US11220492B2, “Quinazoline-pyrazole derivatives for the treatment of cancer-related disorders” (ARCUS BIOSCIENCES, INC., priority 2017, dated 2022).

SMILES strings stand for the structures.

One test addresses T1, A2BR (Homo sapiens, UniProt P29275).
T1 sequence (P29275 1-332): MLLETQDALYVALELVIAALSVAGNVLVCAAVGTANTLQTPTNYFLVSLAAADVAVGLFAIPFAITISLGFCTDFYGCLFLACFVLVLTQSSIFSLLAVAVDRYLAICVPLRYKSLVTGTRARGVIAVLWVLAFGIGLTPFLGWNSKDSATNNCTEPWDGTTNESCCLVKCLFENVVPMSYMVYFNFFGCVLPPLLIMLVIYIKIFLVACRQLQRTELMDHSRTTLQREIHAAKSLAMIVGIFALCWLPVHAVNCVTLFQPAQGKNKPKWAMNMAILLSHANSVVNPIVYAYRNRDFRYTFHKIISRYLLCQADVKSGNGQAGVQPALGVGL
Briefly: A2BR potency (KB), Table 1. It is filed as biochemical.
Conditions: not given
For the molecule `CC(C)n1ccc(Cn2cc(-c3nc(N)nc4c(Cl)cccc34)nn2)n1`, the Kb is < 100 nM. Consider `CCOc1cccc2c(-c3cn(Cc4ccn(C5CC5)n4)nn3)nc(N)nc12`, for which the Kb lay in the range of 100 to 1000 nM. Regarding `COc1cccc2c(-c3cn(Cc4ccn(CCN5CCOCC5=O)n4)nn3)nc(N)nc12`, the Kb was < 100 nM. As for `COc1cccc2c(-c3cn(Cc4ccn(C5CC5)n4)nn3)cc(N)nc12`, the Kb was < 100 nM.

For the molecule `Nc1nc(-c2cn(Cc3ccn(C4CC4)n3)nn2)c2ccc(F)c(F)c2n1`, the Kb was < 100 nM. On the same count and under the same terms, the same measure for `COc1cccc2c(-c3cn(Cc4ccn(CCN5CCCC5=O)n4)nn3)nc(N)nc12`: 100 to 1000 nM; for `COc1cccc2c(-c3cn(Cc4ccn(CC(N)=O)n4)nn3)nc(N)nc12`: < 100 nM; for `COc1cccc2c(-c3cn(Cc4cc[nH]n4)nn3)nc(N)nc12`: < 100 nM. On to `CCn1ccc(Cn2cc(-c3nc(N)nc4c(OC)cccc34)nn2)n1`, for which the Kb is < 100 nM.

In turn, `COc1cccc2c(-c3cn(Cc4ccn(CC(=O)N[C@H]5CCOC5)n4)nn3)nc(N)nc12` came in with a Kb of 100 to 1000 nM. With `COc1ccc2c(-c3cn(Cc4ccn(C(C)(C)CO)n4)nn3)nc(N)nc2c1`, the Kb is < 100 nM. Turning to `N#Cc1ccc2c(-c3cn(Cc4ccn(C5CC5)n4)nn3)nc(N)nc2c1`, the Kb is < 100 nM.

For the molecule `CC(C)(CO)n1ccc(Cn2cc(-c3nc(N)nc4c(F)cccc34)nn2)n1`, the Kb is < 100 nM.

Turning to `COc1cccc2c(-c3cn(Cc4ccn([C@@H]5CCOC5)n4)nn3)nc(N)nc12`, the Kb is < 100 nM. `COc1cccc2c(-c3cn(Cc4ccnn4CC4CCCO4)nn3)nc(N)nc12` (stereo not shown) showed a Kb of 100 to 1000 nM. In the case of `COc1cccc2c(-c3cn(Cc4ccn(CC(C)(C)O)n4)nn3)nc(N)nc12`, the Kb was < 100 nM. Still for that read-out and setting: to `COc1cccc2c(-c3cn(Cc4ccn(C(C)C)n4)nn3)nc(N)nc12` belongs < 100 nM; to `CC(C)n1ccc(Cn2cc(-c3cc(N)nc4c(F)cccc34)nn2)n1`, < 100 nM. With `COc1c(F)ccc2c(-c3cn(Cc4ccn(C(C)C)n4)nn3)nc(N)nc12`, the Kb was < 100 nM. Turning to `COc1cccc2c(-c3cn(Cc4ccn(CC5CCOCC5)n4)nn3)nc(N)nc12`, the Kb was < 100 nM. On the same count and under the same terms, to `COc1cccc2c(-c3cn(Cc4ccn(C(C)(C)CO)n4)nn3)nc(N)nc12` belongs < 100 nM. Consider `COc1cccc2c(-c3cn(Cc4ccnn4C(C)C)nn3)nc(N)nc12`, for which the Kb was < 100 nM.

As to `CC(C)n1nccc1Cn1cc(-c2nc(N)nc3c(Cl)cccc23)nn1`, the Kb was < 100 nM. In the case of `CC(C)(O)Cn1ccc(Cn2cc(-c3cc(N)nc4c(F)cccc34)nn2)n1`, the Kb is < 100 nM. On the same count and under the same terms, to `COc1c(F)ccc2c(-c3cn(Cc4ccnn4C(C)C)nn3)nc(N)nc12` belongs < 100 nM; to `COc1cccc2c(-c3cn(Cc4cc(C(C)(C)O)[nH]n4)nn3)nc(N)nc12`, < 100 nM; to `COc1cccc2c(-c3cn(Cc4ccnn4C)nn3)nc(N)nc12`, < 100 nM. `COc1cccc2c(-c3cn(Cc4ccn(CC(=O)N[C@@H]5CCOC5)n4)nn3)nc(N)nc12` yielded a Kb of 100 to 1000 nM. `COc1cccc2c(-c3cn(Cc4ccn(CC(=O)NCC5(O)CC5)n4)nn3)nc(N)nc12`: the Kb is < 100 nM. For the molecule `COc1cccc2c(-c3cn(Cc4ccn(C(C)C(=O)O)n4)nn3)nc(N)nc12` (stereo not shown), the Kb was 100 to 1000 nM. For `COc1cccc2c(-c3cn(Cc4ccn(C5CC5)n4)nn3)nc(N)nc12`, the Kb is < 100 nM.

Take `CCOc1cccc2c(-c3cn(Cc4ccn(C(C)C)n4)nn3)nc(N)nc12`: the Kb fell in the range of 100 to 1000 nM. On the same count and under the same terms, to `COc1cccc2c(-c3cn(Cc4ccn(CC(=O)N5CC(O)C5)n4)nn3)nc(N)nc12` belongs < 100 nM; to `COc1cccc2c(-c3cn(Cc4ccn(CC(=O)O)n4)nn3)nc(N)nc12`, 100 to 1000 nM; to `Nc1nc(-c2cn(Cc3ccn[nH]3)nn2)c2cccc(F)c2n1`, < 100 nM. In the case of `COc1cccc2c(-c3cn(Cc4ccn([C@H]5CCOC5)n4)nn3)nc(N)nc12`, the Kb was < 100 nM. With `COc1cccc2c(-c3cn(Cc4ccn(C)n4)nn3)nc(N)nc12`, the Kb is < 100 nM. Take `COc1cccc2c(-c3cn(Cc4ccn(C(C)C(N)=O)n4)nn3)nc(N)nc12` (stereo not shown): the Kb was < 100 nM. With `COCC(C)(C)n1ccc(Cn2cc(-c3nc(N)nc4c(OC)cccc34)nn2)n1`, the Kb was < 100 nM. Molecule `COc1c(F)ccc2c(-c3cn(Cc4ccn(C(C)(C)CO)n4)nn3)nc(N)nc12` came in with a Kb of 100 to 1000 nM.

For a further test, the target named is A2AR (Homo sapiens, UniProt P29274). Briefly: A2AR potency (KB), Table 1. The class given is biochemical. To be noted: read-out: Potency: A2AR KB (A2A).
Chain of A2AR (P29274 whole entry): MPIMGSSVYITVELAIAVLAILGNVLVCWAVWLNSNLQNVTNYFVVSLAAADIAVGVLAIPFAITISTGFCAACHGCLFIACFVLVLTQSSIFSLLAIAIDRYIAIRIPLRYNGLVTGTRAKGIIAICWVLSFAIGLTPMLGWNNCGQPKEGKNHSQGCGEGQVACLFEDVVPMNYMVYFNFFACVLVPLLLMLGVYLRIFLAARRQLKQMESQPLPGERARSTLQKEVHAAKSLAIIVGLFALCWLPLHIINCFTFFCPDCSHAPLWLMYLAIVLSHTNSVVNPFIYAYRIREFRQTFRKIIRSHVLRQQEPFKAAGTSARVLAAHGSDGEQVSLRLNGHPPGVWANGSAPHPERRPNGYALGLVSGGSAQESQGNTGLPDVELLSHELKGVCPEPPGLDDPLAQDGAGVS
`CC(C)n1ccc(Cn2cc(-c3nc(N)nc4c(Cl)cccc34)nn2)n1`: the Kb was < 100 nM. The same measure, in the same setting: the same measure for `CCOc1cccc2c(-c3cn(Cc4ccn(C5CC5)n4)nn3)nc(N)nc12`: < 100 nM.

For `COc1cccc2c(-c3cn(Cc4ccn(CCN5CCOCC5=O)n4)nn3)nc(N)nc12`, the Kb is < 100 nM.

`COc1cccc2c(-c3cn(Cc4ccn(C5CC5)n4)nn3)cc(N)nc12`: the Kb was < 100 nM.

In the case of `Nc1nc(-c2cn(Cc3ccn(C4CC4)n3)nn2)c2ccc(F)c(F)c2n1`, the Kb was < 100 nM. For `COc1cccc2c(-c3cn(Cc4ccn(CCN5CCCC5=O)n4)nn3)nc(N)nc12`, the Kb was < 100 nM. For `COc1cccc2c(-c3cn(Cc4ccn(CC(N)=O)n4)nn3)nc(N)nc12`, the Kb is < 100 nM. Regarding `COc1cccc2c(-c3cn(Cc4cc[nH]n4)nn3)nc(N)nc12`, the Kb was < 100 nM. With `CCn1ccc(Cn2cc(-c3nc(N)nc4c(OC)cccc34)nn2)n1`, the Kb was < 100 nM.

With `COc1cccc2c(-c3cn(Cc4ccn(CC(=O)N[C@H]5CCOC5)n4)nn3)nc(N)nc12`, the Kb is < 100 nM. Take `COc1ccc2c(-c3cn(Cc4ccn(C(C)(C)CO)n4)nn3)nc(N)nc2c1`: the Kb was < 100 nM.

Consider `N#Cc1ccc2c(-c3cn(Cc4ccn(C5CC5)n4)nn3)nc(N)nc2c1`, for which the Kb was < 100 nM. For the molecule `CC(C)(CO)n1ccc(Cn2cc(-c3nc(N)nc4c(F)cccc34)nn2)n1`, the Kb was < 100 nM.

For `COc1cccc2c(-c3cn(Cc4ccn([C@@H]5CCOC5)n4)nn3)nc(N)nc12`, the Kb was < 100 nM. Regarding `COc1cccc2c(-c3cn(Cc4ccnn4CC4CCCO4)nn3)nc(N)nc12` (stereo not shown), the Kb is < 100 nM. For `COc1cccc2c(-c3cn(Cc4ccn(CC(C)(C)O)n4)nn3)nc(N)nc12`, the Kb was < 100 nM.

With `COc1cccc2c(-c3cn(Cc4ccn(CCO)n4)nn3)nc(N)nc12`, the Kb is < 100 nM.

For the molecule `COc1cccc2c(-c3cn(Cc4ccn(C(C)C)n4)nn3)nc(N)nc12`, the Kb was < 100 nM.

As to `CC(C)n1ccc(Cn2cc(-c3cc(N)nc4c(F)cccc34)nn2)n1`, the Kb was < 100 nM. For `COc1c(F)ccc2c(-c3cn(Cc4ccn(C(C)C)n4)nn3)nc(N)nc12`, the Kb is < 100 nM. On to `COc1cccc2c(-c3cn(Cc4ccn(CC5CCOCC5)n4)nn3)nc(N)nc12`, for which the Kb was < 100 nM.

With `COc1cccc2c(-c3cn(Cc4ccn(C(C)(C)CO)n4)nn3)nc(N)nc12`, the Kb is < 100 nM. Turning to `COc1cccc2c(-c3cn(Cc4ccnn4C(C)C)nn3)nc(N)nc12`, the Kb is < 100 nM. With `CC(C)n1nccc1Cn1cc(-c2nc(N)nc3c(Cl)cccc23)nn1`, the Kb is < 100 nM.

In the case of `CC(C)(O)Cn1ccc(Cn2cc(-c3cc(N)nc4c(F)cccc34)nn2)n1`, the Kb was < 100 nM. `COc1c(F)ccc2c(-c3cn(Cc4ccnn4C(C)C)nn3)nc(N)nc12`: the Kb is < 100 nM. For the molecule `COc1cccc2c(-c3cn(Cc4cc(C(C)(C)O)[nH]n4)nn3)nc(N)nc12`, the Kb is < 100 nM. For `COc1cccc2c(-c3cn(Cc4ccnn4C)nn3)nc(N)nc12`, the Kb is < 100 nM. Turning to `COc1cccc2c(-c3cn(Cc4ccn(CC(=O)N[C@@H]5CCOC5)n4)nn3)nc(N)nc12`, the Kb was < 100 nM. For the molecule `COc1cccc2c(-c3cn(Cc4ccn(CC(=O)NCC5(O)CC5)n4)nn3)nc(N)nc12`, the Kb was < 100 nM. As for `COc1cccc2c(-c3cn(Cc4ccn(C(C)C(=O)O)n4)nn3)nc(N)nc12` (stereo not shown), the Kb was < 100 nM. Same read-out and setting: to `COc1cccc2c(-c3cn(Cc4ccn(C5CC5)n4)nn3)nc(N)nc12` belongs < 100 nM.

In the case of `CCOc1cccc2c(-c3cn(Cc4ccn(C(C)C)n4)nn3)nc(N)nc12`, the Kb is < 100 nM.

Take `COc1cccc2c(-c3cn(Cc4ccn(CC(=O)N5CC(O)C5)n4)nn3)nc(N)nc12`: the Kb was < 100 nM. In the case of `COc1cccc2c(-c3cn(Cc4ccn(CC(=O)O)n4)nn3)nc(N)nc12`, the Kb was 100 to 1000 nM.

Regarding `Nc1nc(-c2cn(Cc3ccn[nH]3)nn2)c2cccc(F)c2n1`, the Kb is < 100 nM. For `COc1cccc2c(-c3cn(Cc4ccn([C@H]5CCOC5)n4)nn3)nc(N)nc12`, the Kb was < 100 nM. In the case of `COc1cccc2c(-c3cn(Cc4ccn(C)n4)nn3)nc(N)nc12`, the Kb is < 100 nM. `COc1cccc2c(-c3cn(Cc4ccnn4CCO)nn3)nc(N)nc12`: the Kb was < 100 nM. On to `COc1cccc2c(-c3cn(Cc4ccn(C(C)C(N)=O)n4)nn3)nc(N)nc12` (stereo not shown), for which the Kb is < 100 nM.

`COCC(C)(C)n1ccc(Cn2cc(-c3nc(N)nc4c(OC)cccc34)nn2)n1`: the Kb is < 100 nM. `COc1c(F)ccc2c(-c3cn(Cc4ccn(C(C)(C)CO)n4)nn3)nc(N)nc12`: the Kb is < 100 nM.
